# Measured values taken from patent publication US4810422A, “Bile acid derivatives, their salts and production thereof” (priority 1986, dated 1989).
# Experiments:
# [1] = tested on: P388 Mouse leukemia cells; experiment: Carcinolytic effect: inhibition of ^3 H-thymidine intake in P388 leukemia cells; format: cell-based; settings: 2 hours then 1 hour with ^3 H-thymidine, vs. solvent control; for Percent inhibition against ^3 H-thymidine intake: 50 μM, 37° C
# Experimental: P388 Mouse leukemia cells which were subjected to passage transplantation in CDF1 mice were suspended in RPMI1640 culture fluid containing 20 mM HEPES to a cell density of 5×10^5 cells/ml, and 1 ml each of aliquots were apportioned into test tubes. Each of the test samples was added to the suspension to a final concentration of 50 μM, and each preparation was incubated at 37° C with shaking (100 shuttles/min.). Two hours thereafter, ^3 H-thymidine was added to a final concentration of 0.25 μCi/ml, and the incubation was further carried out for 1 hour. Then the radioactivity taken in the cells was measured by a conventional method.
# male ICR mice = experiment: Toxicity: single administration, life span observed for 3 weeks; format: in vivo
# Experimental: Separately, 500 mg/kg of the above test compound was administered intraperitoneally to a group of eight male ICR mice, and their life spans were similarly observed for 3 weeks.
compound,measurement,setting,value
"C[C@H](CCC(=O)O)[C@H]1CC[C@H]2[C@@H]3[C@H](O)C[C@@H]4C[C@H](O)CC[C@]4(C)[C@H]3C[C@H](O)[C@]12C [Cholic acid, reference compound]",inhibition at 50 µM,"[1]; Mus musculus, P388, 37° C, read-out: Percent inhibition against ^3 H-thymidine intake",2%
"C[C@H](CCC(=O)O)[C@H]1CC[C@H]2[C@@H]3[C@H](O)C[C@@H]4C[C@H](OC(=O)Cc5ccc(N(CCCl)CCCl)cc5)CC[C@]4(C)[C@H]3C[C@H](O)[C@]12C [Compound No. 2, 3-O-[p-(N,N-bis(2-chloroethyl)amino)phenylacetyl] cholic acid]",Percent inhibition against ^3 H-thymidine intake,[1],90%
"C[C@H](CCC(=O)O)[C@H]1CC[C@H]2[C@@H]3[C@H](O)C[C@@H]4C[C@H](OC(=O)c5ccc(CN(CCCl)CCCl)cc5)CC[C@]4(C)[C@H]3C[C@H](O)[C@]12C [Compound No. 31, 3-O-[p-(N,N-bis(2-chloroethyl)aminomethyl)benzoyl] cholic acid]",Percent inhibition against ^3 H-thymidine intake,[1],94%
"C[C@H](CCC(=O)O)[C@H]1CC[C@H]2[C@@H]3[C@H](O)C[C@@H]4C[C@H](OC(=O)CN(CCCl)CCCl)CC[C@]4(C)[C@H]3C[C@H](O)[C@]12C [Compound No. 38, 3-O-[N,N-bis(2-chloroethyl)aminoacetyl] cholic acid]",Percent inhibition against ^3 H-thymidine intake,[1],83%
same,"mortality, intraperitoneal","male ICR mice; 500 mg/kg intraperitoneal, eight male ICR mice",No mortality case was observed
same,"mortality, oral","male ICR mice; 2,000 mg/kg oral once, 0.5% CMC, four male ICR mice",No mortality case was observed
"COc1ccc(COC(=O)CC[C@@H](C)[C@H]2CC[C@H]3[C@@H]4[C@H](O)C[C@@H]5C[C@H](OC(=O)c6ccc(OC(=O)N(CCCl)CCCl)cc6)CC[C@]5(C)[C@H]4C[C@H](O)[C@]23C)cc1 [Compound No. 52, p-Methoxybenzyl 3-O-[p-(N,N-bis(2-chloroethyl)aminocarbonyloxy)benzoyl] cholate]",Percent inhibition against ^3 H-thymidine intake,[1],88%
